Where two headings read alike, the source gives them in different places.
What was measured:
SARS-CoV-2 PLpro [1] = biological target: T1, SARS-CoV-2 PLpro (Severe acute respiratory syndrome coronavirus 2, UniProt P0DTD1); test: biochemical; format: biochemical
SARS-CoV-2 PLpro [2] = biological target: T1, SARS-CoV-2 PLpro; test: Pro-ISG15 cleavage assay; format: biochemical; conditions: for inhibition at 20 µM / inhibition at 10 µM: read-out: Inhibition rate of PLpro-mediated deISGylation; for Inhibition rate of PLpro-mediated deISGylation: 20 μM compound, 50 nM PLpro, 350 nM pro-ISG15, 10 min, 37 °C
[3] = IC50 (50% inhibition of PLpro anti-proteolytic activity), 50 nM PLpro, 50 μM Z-RLRGG-AMC, 10 mM DTT, pH 8.0, 37 °C, mean ± SD

Row | Structure (SMILES) | IC50 (SARS-CoV-2 PLpro [1]; [3]) [µM] | Ki (SARS-CoV-2 PLpro [1]) [µM] | inhibition at 20 µM (SARS-CoV-2 PLpro [2]) [%] | inhibition at 10 µM (SARS-CoV-2 PLpro [2]) [%] | Inhibition rate of PLpro-mediated deISGylation (SARS-CoV-2 PLpro [2]) | Inhibition mode (Dixon plot) (SARS-CoV-2 PLpro [1]) | Fold more potent anti-proteolytic activity than di-methylated counterpart 8 (SARS-CoV-2 PLpro [1]; ratio of IC50 values, 7 vs 8) [fold] | IC50 (SARS-CoV-2 PLpro [1]; read-out: IC50 (50% inhibition of PLpro anti-proteolytic activity), pH 8) [µM]
1 | COc1ccc(-c2cc(=O)c3c(O)cc(O)cc3o2)cc1 [Acacetin, acacetin, reference compound] | 91.2 ± 11.3 |  |  |  |  |  |  | 
2 | O=c1cc(-c2ccc(O)cc2)oc2cc(O)cc(O)c12 [Apigenin, apigenin, reference compound] | 75.7 ± 6.4 |  |  |  |  |  |  | 
3 | O=c1cc(-c2ccc(O)c(-c3c(O)cc(O)c4c(=O)cc(-c5ccc(O)cc5)oc34)c2)oc2cc(O)cc(O)c12 [Compound 1, amentoflavone] | 13 ± 1.2 | 9.1 ± 0.7 | 48.1 |  |  |  |  | 
4 | COc1ccc(-c2cc(=O)c3c(O)cc(O)c(-c4cc(-c5cc(=O)c6c(O)cc(O)cc6o5)ccc4O)c3o2)cc1 [Compound 2, podocarpusflavone A] | 43.2 ± 2.9 | 36.5 ± 4.2 | 64.9 to 74.8 | 53.2 to 71.1 |  |  |  | 
5 | COc1cc(O)c2c(=O)cc(-c3ccc(OC)c(-c4c(O)cc(O)c5c(=O)cc(-c6ccc(O)cc6)oc45)c3)oc2c1 [Compound 3, ginkgetin] | 29.8 ± 1.5 | 17.7 ± 1.1 |  | 53.2 to 71.1 | near complete inhibition |  |  | 
6 | COc1ccc(-c2cc(=O)c3c(O)cc(O)c(-c4cc(-c5cc(=O)c6c(O)cc(O)cc6o5)ccc4OC)c3o2)cc1 [Compound 4, isoginkgetin] | 31.2 ± 3.4 | 26.5 ± 2.8 |  | 53.2 to 71.1 | near complete inhibition |  |  | 
7 | O=C1c2c(O)cc(O)cc2O[C@H](c2ccc(O)cc2)[C@H]1c1c(O)cc(O)c2c(=O)cc(-c3ccc(O)c(O)c3)oc12 [Compound 6, morelloflavone] | 36.4 ± 4.8 | 30.7 ± 2.9 | 32.3 to 34.1 |  |  | non-competitive inhibition |  | 
8 | O=c1cc(-c2ccc(Oc3c(O)cc4oc(-c5ccc(O)cc5)cc(=O)c4c3O)cc2)oc2cc(O)cc(O)c12 [Compound 7, hinokiflavone] | 9.5 ± 1.2 | 7.8 ± 0.5 |  | 65.6 to 98 | near complete inhibition |  | 2.8 | 
9 | CC(C)=CCc1cc2c(cc1O)oc(=O)c1c3ccc(O)cc3oc21 [Psoralidin, reference compound] |  |  |  |  |  |  |  | 27.8 ± 2.2

From article PMC8506144 (Phytochemistry, 2021)
